We go through 37 compounds from ChEMBL document CHEMBL1135942, “Synthesis of 5,6-dihydro-11H-benzo[5,6]-cyclohepta[1,2-b]pyridin-11-ylidene)-1-piperidine-N-cyanoguanidine derivatives as inhibitors of ras farnesyl protein transferase” (Bioorg Med Chem Lett, 2002).

The target in the assay is Protein farnesyltransferase (Homo sapiens, UniProt P49354+P49356). The assay can be described thus: FPT inhibitory activity was determined by the ability to inhibit the transfer of [3H]farnesyl from farnesyl pyrophosphate to H-ras-CLVS. It counts as protein-complex assay.

Where only a bound is given, the exact number is not on record here.

The IC50 is the concentration needed to halve the response being measured. Read a low IC50 as higher potency. The compound `N#CN=C(NCC1CCNCC1)N1CCC(=C2c3ccc(Cl)cc3CCc3cc(Br)cnc32)CC1` yielded an IC50 of 18 nM. That is a double-digit nanomolar value.

Consider `N#CN=C(Nc1ccc(C#N)cc1)N1CCC(=C2c3ccc(Cl)cc3CCc3cc(Br)cnc32)CC1`, for which half-maximal inhibition (IC50) was put at 32 nM.

Turning to `N#CN=C(N)N1CCC(=C2c3ccc(Cl)cc3CCc3cc(Br)cnc32)CC1`, the midpoint of inhibition, the IC50, lay at 2600 nM.

`CC(C)NC(=NC#N)N1CCC(=C2c3ccc(Cl)cc3CCc3cc(Br)cnc32)CC1`: the IC50 was found to be 124 nM.

For the compound `O=C(CN1CCC(=C2c3ccc(Cl)cc3CCc3cccnc32)CC1)c1ccccc1`, the concentration for half-maximal inhibition (IC50) was 15800 nM. This IC50 is about 130-fold higher than that of the compound before.

The compound `O=C(Cc1ccc[n+]([O-])c1)N1CCC([C@H]2c3ncc(Br)cc3CCc3cc(Cl)cc(Br)c32)CC1` came in with an IC50 of 8.2 nM.

`CCOC(=O)N1CCC(NC(=NC#N)N2CCC(=C3c4ccc(Cl)cc4CCc4cc(Br)cnc43)CC2)CC1` had an IC50 of 42 nM.

`N#CN=C(Nc1ccc2c(c1)COCO2)N1CCC(=C2c3ccc(Cl)cc3CCc3cc(Br)cnc32)CC1` came in with an IC50 of 15 nM.

`CC(C)c1ccc(N/C(=N\C#N)N2CCC(=C3c4ccc(Cl)cc4CCc4cc(Br)cnc43)CC2)cc1`: inhibition was half-maximal at 150 nM (IC50).

The compound `N#CN=C(NCC1CCCCC1)N1CCC(=C2c3ccc(Cl)cc3CCc3cc(Br)cnc32)CC1` showed an IC50 of 199 nM.

As to `N#CN=C(NC1CC1)N1CCC(=C2c3ccc(Cl)cc3CCc3cc(Br)cnc32)CC1`, the midpoint of inhibition, the IC50, lay at 155 nM.

`N#CN=C(NCc1cccnc1)N1CCC(=C2c3ccc(Cl)cc3CCc3cc(Br)cnc32)CC1` came in with an IC50 of 15 nM. This IC50 is about 10-fold lower than that of the compound before.

`N#CN/C(=N/CCOCCO)N1CCC(=C2c3ccc(Cl)cc3CCc3cc(Br)cnc32)CC1` returned an IC50 of 84 nM.

For the compound `N#C/N=C(\Nc1ccc([N+](=O)[O-])cc1)N1CCC(=C2c3ccc(Cl)cc3CCc3cc(Br)cnc32)CC1`, the IC50 was found to be 62 nM.

`N#CN=C(NCc1ccccc1)N1CCC(=C2c3ccc(Cl)cc3CCc3cc(Br)cnc32)CC1`: inhibition was half-maximal at 230 nM (IC50). This IC50 is about 3.7-fold higher than that of the compound before.

As to `N#CN/C(=N/Cc1ccccn1)N1CCC(=C2c3ccc(Cl)cc3CCc3cc(Br)cnc32)CC1`, the IC50 stood at 29 nM.

The compound `N#CN/C(=N/CCc1ccncc1)N1CCC(=C2c3ccc(Cl)cc3CCc3cc(Br)cnc32)CC1` had an IC50 of 30 nM.

In turn, `N#CN=C(Nc1ccccc1)N1CCC(=C2c3ccc(Cl)cc3CCc3cc(Br)cnc32)CC1` returned an IC50 of 116 nM.

In the case of `N#C/N=C(\Nc1ccc(OC(F)(F)F)cc1)N1CCC(=C2c3ccc(Cl)cc3CCc3cc(Br)cnc32)CC1`, half-maximal inhibition (IC50) required 320 nM.

Consider `COc1ccc(C/N=C(/NC#N)N2CCC(=C3c4ccc(Cl)cc4CCc4cc(Br)cnc43)CC2)cc1`, for which inhibition was half-maximal at 310 nM (IC50).

With `N#CN=C(Nc1ccc2c(c1)OCO2)N1CCC(=C2c3ccc(Cl)cc3CCc3cc(Br)cnc32)CC1`, the IC50 is 38 nM.

For the compound `N#CN/C(=N/CCO)N1CCC(=C2c3ccc(Cl)cc3CCc3cc(Br)cnc32)CC1`, the IC50 was 170 nM. Compared with the last compound, the IC50 is about 4.5-fold higher.

Turning to `N#CN/C(=N/CCCn1ccnc1)N1CCC(=C2c3ccc(Cl)cc3CCc3cc(Br)cnc32)CC1`, inhibition was half-maximal at 35 nM (IC50).

In turn, `N#CN=C(Nc1ccc(F)cc1)N1CCC(=C2c3ccc(Cl)cc3CCc3cc(Br)cnc32)CC1` displayed an IC50 of 38 nM.

`N#CN=C(NCCc1cnc[nH]1)N1CCC(=C2c3ccc(Cl)cc3CCc3cc(Br)cnc32)CC1` came in with an IC50 of 58 nM.

As for `N#CN/C(=N/Cc1ccc2c(c1)OCO2)N1CCC(=C2c3ccc(Cl)cc3CCc3cc(Br)cnc32)CC1`, the IC50 stood at 240 nM.

`CCCCNC(=NC#N)N1CCC(=C2c3ccc(Cl)cc3CCc3cc(Br)cnc32)CC1` returned an IC50 of 105 nM.

Take `N#CN=C(NCc1ccc[n+]([O-])c1)N1CCC(=C2c3ccc(Cl)cc3CCc3cc(Br)cnc32)CC1`: the IC50 is 12 nM.

Regarding `N#CN/C(=N/Cc1ccc[n+]([O-])c1)N1CCC([C@H]2c3ncc(Br)cc3CCc3cc(Cl)cc(Br)c32)CC1`, the IC50 was 1.7 nM. Against the preceding compound, the IC50 is about 7.1-fold lower.

`N#CN/C(=N/Cc1cc[n+]([O-])cc1)N1CCC(=C2c3ccc(Cl)cc3CCc3cc(Br)cnc32)CC1` yielded an IC50 of 6 nM.

Consider `N#CN/C(=N/c1ccncc1)N1CCC(=C2c3ccc(Cl)cc3CCc3cc(Br)cnc32)CC1`, for which the IC50 was less than 110 nM.

In turn, `CN(C)CCCC/N=C(/NC#N)N1CCC(=C2c3ccc(Cl)cc3CCc3cc(Br)cnc32)CC1` displayed an IC50 of 74 nM.

In turn, `N#CN/C(=N/c1ccccc1)N1CCC(=C2c3ccc(Cl)cc3CCc3cccnc32)CC1` gave an IC50 of 86 nM. This IC50 and that of the compound before are within 1.5-fold of each other.

For the compound `CS(=O)(=O)c1ccc(N/C(=N\C#N)N2CCC(=C3c4ccc(Cl)cc4CCc4cc(Br)cnc43)CC2)cc1`, the IC50 worked out at 82 nM.

Compound `CN(C)c1ccc(CNC(=NC#N)N2CCC(=C3c4ccc(Cl)cc4CCc4cc(Br)cnc43)CC2)cc1` yielded an IC50 of 100 nM.

Take `N#CN/C(=N/CC1CCN(C(N)=O)CC1)N1CCC(=C2c3ccc(Cl)cc3CCc3cc(Br)cnc32)CC1`: the IC50 was 6 nM. Against the preceding compound, the IC50 is about 17-fold lower.

For `N#CN/C(=N/C1CCCCC1)N1CCC(=C2c3ccc(Cl)cc3CCc3cc(Br)cnc32)CC1`, inhibition was half-maximal at 20 nM (IC50).
